Experimental data: ChEMBL document CHEMBL1201862, “PubChem BioAssay data set” (2004)
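Briefly, cells in 96-well plates were exposed to five compound concentrations for 48 h, and endpoints were estimated by linear interpolation. Here, GI50 denotes the concentration required for 50% inhibition of growth.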 Active and inactive are the calls of the source. No stated cut-off is given here; in the data, active = GI50 up to about 1.1 µM and inactive = higher.

How the values were obtained:
Assay in all cases: inhibition of tumour cell growth, NCI panel, 48 h
[1] = system: DMS-273
[2] = system: NCI-H460
[3] = system: UACC-257
[4] = system: SF-295
[5] = system: KM12
[6] = system: K562
[7] = system: HT-29
[8] = system: CCRF-CEM
[9] = system: SK-MEL-5
[10] = system: MOLT-4
[11] = system: OVCAR-8
[12] = system: A549
[13] = system: OVCAR-4
[14] = system: SF-539
[15] = system: A498
[16] = system: OVCAR-3
[17] = system: SNB-78
[18] = system: NCI-H522
[19] = system: HL-60
[20] = system: SNB-19
[21] = system: UACC-62
[22] = system: TK-10
[23] = system: SF-268
[24] = system: NCI-H23
[25] = system: SW-620
[26] = system: XF498
[27] = system: LOX IMVI
[28] = system: ACHN
[29] = system: LXFL 529
[30] = system: NCI-H226
[31] = system: IGROV-1
[32] = system: SK-MEL-2
[33] = system: SNB-75
[34] = system: HCT-116
[35] = system: HCT-15
[36] = system: UO-31
[37] = system: DLD-1
[38] = system: U-251
[39] = system: RXF 393
[40] = system: SK-OV-3
[41] = system: M19-MEL
[42] = system: Malme-3M
[43] = system: SK-MEL-28
[44] = system: SN12C
[45] = system: DMS-114
[46] = system: CAKI-1
[47] = system: RPMI-8226
[48] = system: M14
[49] = system: OVCAR-5
[50] = system: HOP-92
[51] = system: KM-20L2
[52] = system: 786-0
[53] = system: EKVX
[54] = system: HCC 2998
[55] = system: HOP-62
[56] = system: COLO 205
[57] = system: SR

SMILES: O=c1c2cc3c(=O)n(CCc4ccccc4CO)c(=O)c3cc2c(=O)n1CCc1ccccc1CO
- GI50 [1]: > 100 µM (inactive)
- GI50 [2]: > 100 µM (inactive)
- GI50 [3]: > 100 µM (inactive)
- GI50 [4]: 46.6 µM (inactive)
- GI50 [5]: > 100 µM (inactive)
- GI50 [6]: > 100 µM (inactive)
- GI50 [7]: > 100 µM (inactive)
- GI50 [8]: > 100 µM (inactive)
- GI50 [9]: > 100 µM (inactive)
- GI50 [10]: > 100 µM (inactive)
- GI50 [11]: > 100 µM (inactive)
- GI50 [12]: > 100 µM (inactive)
- GI50 [13]: > 100 µM (inactive)
- GI50 [14]: > 100 µM (inactive)
- GI50 [15]: > 100 µM (inactive)
- GI50 [16]: > 100 µM (inactive)
- GI50 [17]: > 100 µM (inactive)
- GI50 [18]: > 100 µM (inactive)
- GI50 [19]: > 100 µM (inactive)
- GI50 [20]: > 100 µM (inactive)
- GI50 [21]: > 100 µM (inactive)
- GI50 [22]: > 100 µM (inactive)
- GI50 [23]: > 100 µM (inactive)
- GI50 [24]: > 100 µM (inactive)
- GI50 [25]: > 100 µM (inactive)
- GI50 [26]: > 100 µM (inactive)
- GI50 [27]: > 100 µM (inactive)
- GI50 [28]: > 100 µM (inactive)
- GI50 [29]: > 100 µM (inactive)
- GI50 [30]: > 100 µM (inactive)
- GI50 [31]: > 100 µM (inactive)
- GI50 [32]: > 100 µM (inactive)
- GI50 [33]: > 100 µM (inactive)
- GI50 [34]: > 100 µM (inactive)
- GI50 [35]: > 100 µM
- GI50 [36]: > 100 µM (inactive)
- GI50 [37]: > 100 µM (inactive)
- GI50 [38]: > 100 µM (inactive)
- GI50 [39]: > 100 µM (inactive)
- GI50 [40]: > 100 µM (inactive)
- GI50 [41]: > 100 µM (inactive)
- GI50 [42]: > 100 µM (inactive)
- GI50 [43]: > 100 µM (inactive)
- GI50 [44]: > 100 µM (inactive)
- GI50 [45]: > 100 µM (inactive)

SMILES: COc1ccc2ccccc2c1CN1CCOCCOCCN(Cc2c(OC)ccc3ccccc23)CCOCCOCC1
- GI50 [46]: > 100 µM (inactive)
- GI50 [47]: 10.8 µM (inactive)
- GI50 [1]: 24.2 µM (inactive)
- GI50 [2]: 25.4 µM (inactive)
- GI50 [3]: 45.2 µM (inactive)
- GI50 [4]: > 100 µM (inactive)
- GI50 [5]: > 41.7 µM (inactive)
- GI50 [6]: > 25.6 µM (inactive)
- GI50 [7]: > 20.3 µM (inactive)
- GI50 [8]: > 39.1 µM (inactive)
- GI50 [9]: > 38.9 µM (inactive)
- GI50 [10]: > 49.8 µM (inactive)
- GI50 [11]: > 100 µM (inactive)
- GI50 [12]: 98.2 µM (inactive)
- GI50 [13]: > 100 µM (inactive)
- GI50 [14]: > 45.3 µM (inactive)
- GI50 [15]: > 83.4 µM (inactive)
- GI50 [16]: 16.7 µM (inactive)
- GI50 [48]: 17.1 µM (inactive)
- GI50 [17]: > 68.4 µM (inactive)
- GI50 [18]: > 60.5 µM (inactive)
- GI50 [49]: > 100 µM (inactive)
- GI50 [19]: 32 µM (inactive)
- GI50 [20]: > 100 µM (inactive)
- GI50 [21]: > 85.5 µM (inactive)
- GI50 [22]: > 100 µM (inactive)
- GI50 [23]: > 80.5 µM (inactive)
- GI50 [24]: > 75.3 µM (inactive)
- GI50 [25]: > 62.1 µM (inactive)
- GI50 [26]: > 41.5 µM (inactive)
- GI50 [27]: > 68.5 µM (inactive)
- GI50 [50]: > 27.9 µM (inactive)
- GI50 [28]: > 100 µM (inactive)
- GI50 [29]: > 89.9 µM (inactive)
- GI50 [51]: > 23 µM (inactive)
- GI50 [52]: 31.8 µM (inactive)
- GI50 [53]: > 100 µM (inactive)
- GI50 [30]: 99.3 µM (inactive)
- GI50 [31]: > 100 µM (inactive)
- GI50 [32]: 46.3 µM (inactive)
- GI50 [33]: > 52.5 µM (inactive)
- GI50 [34]: 25.1 µM (inactive)
- GI50 [35]: > 91 µM
- GI50 [36]: > 100 µM (inactive)
- GI50 [54]: 14.8 µM (inactive)
- GI50 [55]: > 100 µM (inactive)
- GI50 [37]: > 100 µM (inactive)
- GI50 [38]: > 93.3 µM (inactive)
- GI50 [39]: > 100 µM (inactive)
- GI50 [40]: > 100 µM (inactive)
- GI50 [41]: > 81.8 µM (inactive)
- GI50 [42]: > 45.9 µM (inactive)
- GI50 [43]: > 45.2 µM (inactive)
- GI50 [56]: > 90.4 µM (inactive)
- GI50 [44]: > 69.8 µM (inactive)
- GI50 [57]: 0.514 µM (active)
- GI50 [45]: 9.95 µM (inactive)
